Where two headings read alike, the source gives them in different places.
Columns and labels:
[1] = Fondaparinux overdose and pharmacokinetics in mice; type: in vivo; conditions: mouse
Description: 1—Determination of the Doses of Fondaparinux Inducing an Overdose in Mice Published data concerning fondaparinux pharmacokinetics in rats (Herbert J 4197), or experimental determination of fondaparinux pharmacokinetics in mice are used to develop the model.
To induce an overdose, a 3 fold doses (300 nmol/kg, or 0.52 mg/kg) is tested. At this dose, the fondaparinux plasma concentration is about 3.5 to 4 nmol/ml (or 6 to 7 mg/L). An anti-Xa activity is determined to ensure that an overdose is obtained.
Anti FXa activity measurements is performed as previously described using a Stachrom Heparin® kit on a STA (Stago, France) or a Rotachrom Heparin® kit with procedure adapted for measurement in microplate reader (Dynatech MR 5000). A calibration curve with pentasaccharide is performed, allowing the expression of the results in nmol/ml (or in mg/L) of plasma.
In mouse, an overdose of fondaparinux is observed at 300 nmol/kg (or 0.52 mg/kg) but maximal concentration in plasma is observed less than 15 min after sub-cutaneous injection.

[2] = rats, cited from earlier work
[3] = patients, curative pentasaccharide treatment; cited from earlier work
[4] = Heparin affinity column elution with NaCl gradient; type: binding
Description: Conditioned media are thawed, pooled, salt concentration adjusted to 0.4 M NaCl and then applied on an heparin immobilized column (Hitrap Heparin 5 ml or Heparin-sepharose CL6B 50 ml, GE Biological) equilibrated with 10 mM Tris, or with 20 mM phosphate buffer, 0.4 M NaCl and 0.1 mM EDTA, pH 7.4. The bound proteins are eluted in the same buffer with a gradient from 0.4 M to 2 M NaCl. The fractions eluted from 0.8 M NaCl and more contained only wild type antithrombin or mutated antithrombins with high heparin affinity. […] The collected fractions are pooled and the salt concentration is decreased either by over night dialysis against 10 mM Tris, or 20 mM phosphate, and 0.1 M NaCl, pH 7.4 at 4° C. or applied on an HiPrep 26/10 desalting column equilibrated with 10 mM Tris, or 20 mM phosphate, and 0.1 M NaCl, pH 7.4. The antithrombin is then concentrated by ion exchange chromatography using a “Resource Q” 1 ml column (GE, Biological) equilibrated with 10 mM Tris, or 20 mM phosphate, and 0.1 M NaCl, pH 7.4 and eluted in the same buffer with a NaCl gradient from […] to 0.5 M or 20 mM to 0.5 M. The antithrombin concentration in each elution fraction is estimated by absorbance at 280 nm with an absorption coefficient ε=0.65 g^−1·l·cm^−1 and the integrity of purified wild type antithrombin or mutated antithrombins is tested by western blotting using the same couple of antibodies as described before, and electrophoresis on 10% acrylamide/bisacrylamide gel in native and denaturing conditions followed by coomassie brilliant blue R-250 staining (FIG. 4). Then, the antithrombin preparation is aliquoted and stored at −80° C. before use for functional assay. The same procedure is used to purify plasma antithrombin (used as internal reference) from human plasma.

Compound	dose at which an overdose is observed [1] [mg/kg]	Tmax ([2]; intra-venous injection of 100 nmol/kg (or 0.17 mg/kg)) [min]	Tmax ([2]; subcutaneous injection of 100 nmol/kg (or 0.17 mg/kg)) [min]	minimal equilibrium concentration in plasma [3] [mg/L]	optimal equilibrium concentration in plasma [3] [mg/L]	elution from heparin affinity column compared with wild type antithrombin [4]
CO[C@H]1O[C@H](COS(=O)(=O)O)[C@@H](O[C@@H]2O[C@@H](C(=O)O)[C@@H](O[C@H]3O[C@H](COS(=O)(=O)O)[C@@H](O[C@@H]4O[C@H](C(=O)O)[C@@H](O[C@H]5O[C@H](COS(=O)(=O)O)[C@@H](O)[C@H](O)[C@H]5NS(=O)(=O)O)[C@H](O)[C@H]4O)[C@H](OS(=O)(=O)O)[C@H]3NS(=O)(=O)O)[C@H](O)[C@H]2OS(=O)(=O)O)[C@H](O)[C@H]1NS(=O)(=O)O [fondaparinux]	0.52	5	30	0.46 to 0.62	1.20 to 1.26	–
AT-N135Q: human antithrombin with substitution of the amino acid at position 135 by Glutamine	–	–	–	–	–	higher ionic strength than wild type antithrombin

Reference: patent US8741844B2, “Use of mutated antithrombins for treating or preventing coagulation disorders” (Universite Paris-Sud XI, priority 2007, dated 2014)
